Test results published in US20250034139A1, “AMINE COMPOUNDS HAVING ANTI-INFLAMMATORY, ANTIFUNGAL, ANTIPARASITIC, AND ANTICANCER ACTIVITY” (PHARMA CINQ, LLC, priority 2013, published 2025).
≈ marks a conversion by molar mass, not a printed value.

Assays:
[1] = tested on: Cryptococcus neoformans strains; experiment: Example N: MIC and MFC (CLSI) against Cryptococcus neoformans; assay type: cell-based; set-up: MIC at 50% inhibition: unit not given here; conditions: for MIC / MFC: Cryptococcus neoformans, three clinical strains; for MIC: read-out: MIC 100%, Range, incubated for 72 hrs
Description: The objective of this study was to determine the antifungal activity of eight experimental compounds against a representative panel of fungal isolates, including Candida albicans, C. glabrata, Cryptococcus neoformans, Trichophyton rubrum, Aspergillus fumigatus, and Rhizopus spp. Antifungal activity was measured by minimum inhibitory concentration (MIC) and minimum fungicidal concentration (MFC).
Three recent clinical strains of each species, taken from the culture collection at the Center for Medical Mycology, Case Western University, were tested.
Compounds in powder form were dissolved in DMSO. Serial dilutions of each compound were then prepared in RPMI-1640 in a range of […].
MIC testing was performed according to the CLSI M27-A3 and M38-A2 standards for the susceptibility testing of yeasts and filamentous fungi, respectively (1, 2). Test isolates were subcultured from frozen slants onto potato dextrose agar plates (Trichophyton rubrum was subcultured onto oatmeal plates for conidia production) and checked for purity. Inocula were then prepared in RPMI-1640 (YNB for Cryptococcus) to a concentration of 0.5-2.5×10^3 colony-forming units (CFU)/ml or 0.4-5×10^4 conidia/ml for yeast and filamentous fungi, respectively.
MFC determinations were performed according to the modifications previously described by Canton et al. and Ghannoum and Isham. (3, 4) Specifically, the total contents of each clear well from the MIC assay were subcultured onto potato dextrose agar. To avoid antifungal carryover, the aliquots were allowed to soak into the agar and then were streaked for isolation once dry, thus removing the cells from the drug source.

[2] = tested on: PC3 human prostate cancer cells; experiment: Example S: in vitro anticancer screen, PC-3 cells, Wst1; assay type: cell-based; conditions: Homo sapiens, PC-3, approximately 20 hours, Wst1, read-out: PC-3, percent of cancer cell survival relative to vehicle treated cells
Outline: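 Values give percent survival relative to vehicle, read by Wst1 absorbance (450/630 nm) after 2 h dye incubation, in triplicate. Cells were seeded at 2×10^4/well and treated about 20 h with compound at 0.4, 0.5 or 2.5 μM, depending on compound.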

S. cerevisiae = experiment: Example I: Saccharomyces cerevisiae growth inhibition (OD 600 nm); assay type: cell-based; conditions: Saccharomyces cerevisiae, 18 hour incubation at 30° C., OD 600 nm, XLfit; for IC50: read-out: IC50, uM (50% inhibition of fungal growth); for MIC: read-out: MIC, uM (99% of inhibition of fungal growth)
[3] = tested on: PC-3 prostate cancer cells; experiment: Example T: sensitisation of PC-3 cells to doxorubicin, oxaliplatin, paclitaxel or vincristine, Wst1; assay type: cell-based, human; conditions: PC-3 cells, 72 hours; for viability at 0.4 µM: compound 0.4 μM alone; for Doxorubicin 3.5 μM: percent cell survival / Oxaliplatin 100 μM: percent cell survival / Paclitaxel 50 μM: percent cell survival / Vincristine 100 nM: percent cell survival: chemotherapy agent alone normalized to 100%
[4] = Homo sapiens, Wst1, vehicle = 100, read-out: No Chemo: percent cell survival
[5] = compound 0.4 μM + doxorubicin 3.5 μM
[6] = compound 0.4 μM + oxaliplatin 100 μM
[7] = compound 0.4 μM + paclitaxel 50 μM
[8] = compound 0.4 μM + vincristine 100 nM

| SMILES | MIC [1] [µg/mL] | MFC [1] [µg/mL] | viability at 0.4 µM [2] [%] | IC50 (S. cerevisiae) [µM] | MIC (S. cerevisiae) [µM] | viability at 0.4 µM [3, 4] [%] | Doxorubicin 3.5 μM: percent cell survival [3, 5] [%] | Oxaliplatin 100 μM: percent cell survival [3, 6] [%] | Paclitaxel 50 μM: percent cell survival [3, 7] [%] | Vincristine 100 nM: percent cell survival [3, 8] [%] | viability at 2.5 µM ([2]; 2.5 μM) [%] | viability at 2.5 µM ([3]; Homo sapiens, compound 2.5 μM alone, Wst1, vehicle = 100, read-out: No Chemo: percent cell survival) [%] | Doxorubicin 3.5 μM: percent cell survival ([3]; compound 2.5 μM + doxorubicin 3.5 μM) [%] | Oxaliplatin 100 μM: percent cell survival ([3]; compound 2.5 μM + oxaliplatin 100 μM) [%] | Paclitaxel 50 μM: percent cell survival ([3]; compound 2.5 μM + paclitaxel 50 μM) [%] | Vincristine 100 nM: percent cell survival ([3]; compound 2.5 μM + vincristine 100 nM) [%] | MIC at 50% inhibition [1] | cidal activity (MFC within 4 dilutions of the MIC), in words ([1]; 3 isolates) |
| --- | --- | --- | --- | --- | --- | --- | --- | --- | --- | --- | --- | --- | --- | --- | --- | --- | --- | --- |
| CCCCCCOCCCCCCCCNc1ccnc2cc(Cl)ccc12 [AW, 7-Chloro-N-[8-(hexyloxy)octyl]quinolin-4-amine] | 2 (≈ 5.12 µM) | 2 to 8 (≈ 5.12 to 20.5 µM) | 38.2 | 9.73 | 10.2 (≈ 4 µg/mL) | 38.2 | 59.5 | 70 | 51.3 | 33.6 |  |  |  |  |  |  |  |  |
| CCCCCCOc1cccc(CNc2ccnc3ccccc23)c1 [Compound AC, N-[3-(Hexyloxy)benzyl]quinolin-4-amine] | 0.25 to 4 (≈ 0.747 to 12 µM) | 8 (≈ 23.9 µM) | 61.5 | 27.7 | 47.7 (≈ 15.9 µg/mL) | 61.5 | 32.8 | 30 | 14 | 34.1 |  |  |  |  |  |  |  |  |
| CCCCCCCCCCNc1ccnc2ccccc12 [Compound AG, N-(Decyl)quinolin-4-amine] | 4 (≈ 14.1 µM) | 8 to 16 (≈ 28.1 to 56.2 µM) |  | 19.4 | 24.4 (≈ 6.93 µg/mL) |  |  |  |  |  | 18.4 | 18.4 | 21.1 | 27.1 | 21.8 | 17.1 |  |  |
| CCCCCCOCCCCCCCCCCNc1ccnc2ccccc12 [Compound AL, N-[10-(Hexyloxy)decyl]quinolin-4-amine] | 2 (≈ 5.2 µM) | 2 to 4 (≈ 5.2 to 10.4 µM) | 61.6 | 9.67 | 10.5 (≈ 4.03 µg/mL) | 61.6 | 21.9 | 21.9 | 51.8 | 28.1 |  |  |  |  |  |  |  |  |
| CCCCCCOCCCCCCCCNc1ccnc2c(Cl)cccc12 [Compound AX, 8-Chloro-N-[8-(hexyloxy)octyl]quinolin-4-amine] | 0.5 to 4 (≈ 1.28 to 10.2 µM) | 4 to 8 (≈ 10.2 to 20.5 µM) | 31.2 | 19.6 | 19.9 (≈ 7.79 µg/mL) | 31.2 | 57.9 | 49.5 | 26.7 | 31.5 |  |  |  |  |  |  | 0.12-2 | cidal against all 3 neoformans isolates |
